Laboratory results taken from patent US20140186427A1, “ORODISPERSIBLE FILMS FOR THE MANUFACTURING OF INDIVIDUALISED MEDICINE OR FOR LARGE SCALE PRODUCTION” (TESA LABTEC GMBH, priority 2011, published 2014).
Structures can show the parent of a compound that is named as a salt.

How the values were obtained:
[1] = Solubility of the API in the ink (Klucel EX, brilliant blue, ethanol); type: physicochemical; conditions: brilliant blue and ethanol
Text: The ingredients of the ink were Klucel® EX (hydroxypropylcellulose, Ashland, USA), brilliant blue and ethanol.

[2] = Recrystallisation after printing: polarised microscopy and X-ray diffraction; type: physicochemical; conditions: printed ODF
Text: X-ray diffractograms were collected for the drug-free film, the APIs and the ODFs after the fourth printing process using […], Netherland). Polarised micrographs and scanning electron micrographs were collected for the drug-free film and the ODFs after the fourth printing process using a DMLB microscope (Leica Microsystems, Cambridge, UK) and a LEO 1430 VP (Leo Elektron Microscopy, Cambridge, UK).

Solubility in the ink [1] | Recrystallisation / crystals after the printing process [2] | Structure (SMILES)
soluble in the ink | did not recrystallise | C#CCN[C@@H]1CCc2ccccc21 [Rasagiline mesylate]
forms an ink-suspension | – | CN1CC(=O)N2[C@H](c3ccc4c(c3)OCO4)c3[nH]c4ccccc4c3C[C@@H]2C1=O [Tadalafil]
